Tests used:
KDR kinase = KDR kinase (Homo sapiens, UniProt P35968); assay: KDR kinase inhibition assay (LanthaScreen TR-FRET); assay type: biochemical; conditions: TR-FRET assay
Method: KDR Kinase Inhibition Assay
LanthaScreen™ is the detection of Time-Resolved Fluorescence Resonance Energy Transfer (TR-FRET) using lanthanide chelates to measure interactions between various binding partners. The application of TR-FRET to assay kinase activity was first described by Mathis (1995). A TR-FRET assay was used to measure KDR kinase inhibitory activity. The assay panel was run on a Biomek FX liquid handling workstations. To the assay plates containing 50 nL compound or control solutions, 4.5 μL of buffer A (50 mM TRIS-HCl pH 7.4, 2 mM DTT, 0.02% Tween 20, 0.02 mM Na3VO4, H2O nanpure) including a generic concentration of ATP (2 μM f.c.) was added per well, followed by 4.5 μL of buffer B (4 uM ATP in Buffer A) including a generic concentration of polyEAY (50 nM f.c.), KDR kinase, and divalent cations. Final concentration of kinase and cations were: [KDR kinase]=0.38 nM, [Mg]=10 mM, [Ca]=1 mM. After 1 hour of incubation the kinase reactions were stopped by the addition of 4.5 μL of stop solution D (50 mM EDTA, 20 mM TRIS-HCl pH 7.4, 0.04% NP-40) immediately followed by 4.5 μL of buffer A (50 mM TRIS-HCl pH 7.4, 2 mM DTT, 0.02% Tween 20, 0.02 mM Na3VO4, H2O nanpure) including the Tb-labeled P-20 antibody to give a total detection volume of 18 μL. After an incubation time of 45 min in the dark, the plates were transferred into the Pherastar fluorescence reader for counting. The effect of compound on the enzymatic activity was obtained from the linear progress curves and determined from one reading (end point measurement).

PIM2 = PIM2 (Homo sapiens, UniProt Q9P1W9); assay: Pim 2 AlphaScreen assay (high ATP); assay type: biochemical; conditions: read-out: Pim2 IC50
Method in brief: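 This is a bead-based AlphaScreen run at high ATP (11-125× Km) with biotin-Bad peptide (100 nM in the substrate mix), in 50 mM Hepes pH 7.5, 5 mM MgCl2, 0.05% BSA, 0.01% Tween-20, 1 mM DTT and 2.5% DMSO final. After ~2 h the reaction was stopped with EDTA. Phospho-peptide was detected overnight with anti-phospho Ser/Thr antibody on Protein A and streptavidin beads, giving IC50.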

Sequence of KDR kinase (P35968 20-1356): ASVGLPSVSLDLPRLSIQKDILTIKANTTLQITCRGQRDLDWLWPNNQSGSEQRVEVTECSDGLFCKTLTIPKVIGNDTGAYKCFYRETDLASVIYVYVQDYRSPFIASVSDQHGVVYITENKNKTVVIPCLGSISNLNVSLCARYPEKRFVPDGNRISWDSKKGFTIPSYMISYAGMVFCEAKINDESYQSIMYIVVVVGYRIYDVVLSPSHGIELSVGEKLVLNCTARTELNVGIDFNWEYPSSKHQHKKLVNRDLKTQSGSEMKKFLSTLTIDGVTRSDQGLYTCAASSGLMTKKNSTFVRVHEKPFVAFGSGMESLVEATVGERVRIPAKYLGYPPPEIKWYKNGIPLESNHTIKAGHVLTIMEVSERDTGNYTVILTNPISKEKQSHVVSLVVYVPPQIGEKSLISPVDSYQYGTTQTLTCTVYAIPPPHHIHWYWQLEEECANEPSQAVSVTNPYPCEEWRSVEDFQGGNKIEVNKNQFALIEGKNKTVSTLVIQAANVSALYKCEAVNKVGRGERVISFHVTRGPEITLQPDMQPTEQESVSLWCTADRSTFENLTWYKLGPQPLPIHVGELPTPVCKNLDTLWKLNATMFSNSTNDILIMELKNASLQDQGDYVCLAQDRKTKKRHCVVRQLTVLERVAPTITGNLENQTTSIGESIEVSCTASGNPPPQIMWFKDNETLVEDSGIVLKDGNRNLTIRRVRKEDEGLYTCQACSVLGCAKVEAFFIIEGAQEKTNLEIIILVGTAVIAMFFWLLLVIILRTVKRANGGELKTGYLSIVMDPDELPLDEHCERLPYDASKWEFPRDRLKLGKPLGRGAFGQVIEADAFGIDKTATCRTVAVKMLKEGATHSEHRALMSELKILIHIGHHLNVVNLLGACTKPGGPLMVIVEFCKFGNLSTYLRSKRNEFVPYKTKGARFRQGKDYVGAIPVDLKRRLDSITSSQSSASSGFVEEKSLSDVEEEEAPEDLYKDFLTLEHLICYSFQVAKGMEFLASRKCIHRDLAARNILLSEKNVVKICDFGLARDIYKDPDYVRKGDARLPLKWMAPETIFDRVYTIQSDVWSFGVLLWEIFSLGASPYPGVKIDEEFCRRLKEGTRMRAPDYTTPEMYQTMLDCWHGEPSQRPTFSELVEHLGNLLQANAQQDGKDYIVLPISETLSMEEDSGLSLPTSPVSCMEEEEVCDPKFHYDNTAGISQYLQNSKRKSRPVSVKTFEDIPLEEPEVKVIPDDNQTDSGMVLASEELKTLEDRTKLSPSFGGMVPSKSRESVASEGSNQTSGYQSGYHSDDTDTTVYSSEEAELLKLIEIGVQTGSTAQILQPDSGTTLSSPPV
Sequence of PIM2 (Q9P1W9 whole entry): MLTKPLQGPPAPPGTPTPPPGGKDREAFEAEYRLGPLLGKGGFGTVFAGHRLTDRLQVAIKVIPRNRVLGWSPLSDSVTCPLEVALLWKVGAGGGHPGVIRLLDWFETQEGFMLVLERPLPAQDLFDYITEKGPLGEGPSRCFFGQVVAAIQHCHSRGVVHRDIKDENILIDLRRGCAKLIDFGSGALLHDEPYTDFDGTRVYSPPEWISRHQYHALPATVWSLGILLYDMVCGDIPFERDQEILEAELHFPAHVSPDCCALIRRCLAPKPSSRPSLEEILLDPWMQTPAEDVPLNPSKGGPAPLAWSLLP

Compound	IC50 (KDR kinase)	IC50 (PIM2)
C[C@]1(O)[C@H](N)C[C@H](c2ccncc2NC(=O)c2nc(-c3ccccc3)cnc2N)O[C@@H]1C1CC1 [Example 344, 3-amino-N-(4-((2R,4R,5S,6R)-4-amino-6-cyclopropyl-5-hydroxy-5-methyltetrahydro-2H-pyran-2-yl)pyridin-3-yl)-6-phenylpyrazine-2-carboxamide]	58 nM	106 nM
C[C@@]1(O)[C@@H](N)C[C@@H](c2ccncc2NC(=O)c2nc(-c3ccccc3)cnc2N)OC12CC2 [Example 350, 3-amino-N-(4-((5S,7S,8R)-7-amino-8-hydroxy-8-methyl-4-oxaspiro[2.5]octan-5-yl)pyridin-3-yl)-6-phenylpyrazine-2-carboxamide]	220 nM	786 nM
Nc1ncc(-c2ccccc2)nc1C(=O)Nc1cnccc1[C@H]1C[C@@H](N)[C@H](O)[C@@H](C2CC2)O1 [Example 346, 3-amino-N-(4-((2R,4R,5S,6R)-4-amino-6-cyclopropyl-5-hydroxytetrahydro-2H-pyran-2-yl)pyridin-3-yl)-6-phenylpyrazine-2-carboxamide]	28 nM	62.7 nM
CC(C)(C)[C@@H]1O[C@H](c2ccncc2NC(=O)c2nc(-c3ccccc3)cnc2N)C[C@@H](N)[C@H]1O [Example 227, 3-amino-N-(4-((2S,4R,5R,6S)-4-amino-6-tert-butyl-5-hydroxytetrahydro-2H-pyran-2-yl)pyridin-3-yl)-6-phenylpyrazine-2-carboxamide]	1700 nM	549 nM
Nc1ncc(-c2ccccc2)nc1C(=O)Nc1cnccc1[C@H]1C[C@@H](N)[C@@]2(O)CCC[C@H]2O1 [Example 183, 3-amino-N-(4-((2R,4R,4aS,7aR)-4-amino-4a-hydroxyoctahydrocyclopenta[b]pyran-2-yl)pyridin-3-yl)-6-phenylpyrazine-2-carboxamide]	6.8 nM	76.6 nM
CC[C@@H]1O[C@H](c2ccncc2NC(=O)c2nc(-c3ccccc3)cnc2N)C[C@H](N)[C@@]1(C)O [Example 345, 3-amino-N-(4-((2S,4S,5R,6S)-4-amino-6-ethyl-5-hydroxy-5-methyltetrahydro-2H-pyran-2-yl)pyridin-3-yl)-6-phenylpyrazine-2-carboxamide]	4400 nM	7810 nM
C[C@@]1(O)[C@H](N)C[C@@H](c2ccncc2NC(=O)c2nc(-c3ccccc3)cnc2N)OC12CC2 [Example 352, 3-amino-N-(4-((5S,7R,8R)-7-amino-8-hydroxy-8-methyl-4-oxaspiro[2.5]octan-5-yl)pyridin-3-yl)-6-phenylpyrazine-2-carboxamide]	28 nM	1980 nM
Nc1ncc(-c2ccccc2)nc1C(=O)Nc1cnccc1[C@H]1C[C@@H](N)[C@H]2CCC[C@H]2O1 [Example 199, 3-amino-N-(4-((2R,4R,4aR,7aR)-4-aminooctahydrocyclopenta[b]pyran-2-yl)pyridin-3-yl)-6-phenylpyrazine-2-carboxamide]	62 nM	102 nM
Nc1ncc(-c2ccccc2)nc1C(=O)Nc1cnccc1[C@H]1C[C@@H](O)[C@H](O)[C@@H](CO)O1 [Example 341, 3-amino-N-(4-((2R,4R,5S,6R)-4,5-dihydroxy-6-(hydroxymethyl)tetrahydro-2H-pyran-2-yl)pyridin-3-yl)-6-phenylpyrazine-2-carboxamide]	60 nM	> 25000 nM
Nc1ncc(-c2ccccc2)nc1C(=O)Nc1cnccc1[C@H]1C[C@@H](N)[C@@]2(O)CCCC[C@H]2O1 [Example 197, 3-amino-N-(4-((2R,4R,4aS,8aR)-4-amino-4a-hydroxyoctahydro-2H-chromen-2-yl)pyridin-3-yl)-6-phenylpyrazine-2-carboxamide]	40 nM	89.2 nM
CC[C@H]1O[C@@H](c2ccncc2NC(=O)c2nc(-c3ccccc3)cnc2N)C[C@@H](N)[C@@H]1O [Example 343, 3-amino-N-(4-((2R,4R,5S,6R)-4-amino-6-ethyl-5-hydroxytetrahydro-2H-pyran-2-yl)pyridin-3-yl)-6-phenylpyrazine-2-carboxamide]	13 nM	49.1 nM
C[C@@]1(O)[C@@H](N)C[C@@H](c2ccncc2NC(=O)c2nc(-c3ccccc3)cnc2N)O[C@H]1C1CC1 [Example 347, 3-amino-N-(4-((2S,4S,5R,6S)-4-amino-6-cyclopropyl-5-hydroxy-5-methyltetrahydro-2H-pyran-2-yl)pyridin-3-yl)-6-phenylpyrazine-2-carboxamide]	3700 nM	8020 nM
CC(C)(C)[C@@H]1O[C@H](c2ccncc2NC(=O)c2nc(-c3ccccc3)cnc2N)C[C@H](N)[C@H]1O [Example 355, 3-amino-N-(4-((2S,4S,5R,6S)-4-amino-6-tert-butyl-5-hydroxytetrahydro-2H-pyran-2-yl)pyridin-3-yl)-6-phenylpyrazine-2-carboxamide]	6400 nM	8750 nM
CC[C@H]1O[C@@H](c2ccncc2NC(=O)c2nc(-c3ccccc3)cnc2N)C[C@@H](N)[C@]1(C)O [Example 348, 3-amino-N-(4-((2R,4R,5S,6R)-4-amino-6-ethyl-5-hydroxy-5-methyltetrahydro-2H-pyran-2-yl)pyridin-3-yl)-6-phenylpyrazine-2-carboxamide]	150 nM	146 nM
CC(C)[C@@H]1O[C@H](c2ccncc2NC(=O)c2nc(-c3ccccc3)cnc2N)C[C@H](N)[C@H]1O [Example 240, 3-amino-N-(4-((2S,4S,5R,6S)-4-amino-5-hydroxy-6-isopropyltetrahydro-2H-pyran-2-yl)pyridin-3-yl)-6-phenylpyrazine-2-carboxamide]	5100 nM	2770 nM
CC(C)[C@H]1O[C@@H](c2ccncc2NC(=O)c2nc(-c3ccccc3)cnc2N)C[C@@H](N)[C@@H]1O [Example 356, 3-amino-N-(4-((2R,4R,5S,6R)-4-amino-5-hydroxy-6-isopropyltetrahydro-2H-pyran-2-yl)pyridin-3-yl)-6-phenylpyrazine-2-carboxamide]	43 nM	28.1 nM
CC(C)(C)[C@H]1O[C@@H](c2ccncc2NC(=O)c2nc(-c3ccccc3)cnc2N)C[C@@H](N)[C@@H]1O [Example 354, 3-amino-N-(4-((2R,4R,5S,6R)-4-amino-6-tert-butyl-5-hydroxytetrahydro-2H-pyran-2-yl)pyridin-3-yl)-6-phenylpyrazine-2-carboxamide]	62 nM	9 nM
C[C@H]1O[C@@H](c2ccncc2NC(=O)c2nc(-c3ccccc3)cnc2N)C[C@@H](N)[C@]1(C)O [Example 228, 3-amino-N-(4-((2R,4R,5S,6R)-4-amino-5-hydroxy-5,6-dimethyltetrahydro-2H-pyran-2-yl)pyridin-3-yl)-6-phenylpyrazine-2-carboxamide]	38 nM	120 nM
C[C@]1(O)[C@H](N)C[C@H](c2ccncc2NC(=O)c2nc(-c3ccccc3)cnc2N)OC12CC2 [Example 353, 3-amino-N-(4-((5R,7R,8S)-7-amino-8-hydroxy-8-methyl-4-oxaspiro[2.5]octan-5-yl)pyridin-3-yl)-6-phenylpyrazine-2-carboxamide]	250 nM	2430 nM
CCC[C@H]1O[C@@H](c2ccncc2NC(=O)c2nc(-c3ccccc3)cnc2N)C[C@@H](O)[C@@H]1O [Example 340, 3-amino-N-(4-((2R,4R,5S,6R)-4,5-dihydroxy-6-propyltetrahydro-2H-pyran-2-yl)pyridin-3-yl)-6-phenylpyrazine-2-carboxamide]	130 nM	3650 nM
Nc1ncc(-c2ccccc2)nc1C(=O)Nc1cnccc1[C@@H]1C[C@H](N)[C@@H](O)[C@H](C2CC2)O1 [Example 349, 3-amino-N-(4-((2S,4S,5R,6S)-4-amino-6-cyclopropyl-5-hydroxytetrahydro-2H-pyran-2-yl)pyridin-3-yl)-6-phenylpyrazine-2-carboxamide]	2300 nM	2740 nM
Nc1ncc(-c2ccccc2)nc1C(=O)Nc1cnccc1[C@@H]1C[C@H](N)[C@]2(O)CCC[C@@H]2O1 [Example 185, 3-amino-N-(4-((2S,4S,4aR,7aS)-4-amino-4a-hydroxyoctahydrocyclopenta[b]pyran-2-yl)pyridin-3-yl)-6-phenylpyrazine-2-carboxamide]	2000 nM	6430 nM
C[C@@H]1O[C@H](c2ccncc2NC(=O)c2nc(-c3ccccc3)cnc2N)C[C@H](N)[C@@]1(C)O [Example 229, 3-amino-N-(4-((2S,4S,5R,6S)-4-amino-5-hydroxy-5,6-dimethyltetrahydro-2H-pyran-2-yl)pyridin-3-yl)-6-phenylpyrazine-2-carboxamide]	790 nM	3310 nM
